Test results as given in patent publication US6545038B1, “Heterocyclic metalloprotease inhibitors” (The Procter & Gamble Company, priority 1996, dated 2003).

Experiment: Method of use Example B: daily capsule in a subject suffering from osteoarthritis
Assay type: in vivo
Settings: human male, capsule containing 70 mg daily for 5 years
Procedure: A human subject weighing 90 kg (198 lbs), suffering from osteoarthritis, is treated by a method of this invention. Specifically, for 5 years, a capsule containing 70 mg of Example 3 is administered daily to said subject.

SMILES: COc1ccc(S(=O)(=O)N2CCCSC(C)(C)[C@@H]2C(=O)N(C)O)cc1 [Example 3, 3(S)-N-Hydroxy-N-methyl-2,2-dimethyl-4N-[(4-methoxyphenyl)sulfonyl]-thiazepine-3-carboxamide]
- erosion/fibrillation of the articular cartilage, examined via orthoscopy: no further advancement of erosion/fibrillation of the articular cartilage
